Data reported in patent publication US9179678B2, “Substituted [1,2,4]triazoles and substituted tetrazoles as herbicides” (SYNGENTA LIMITED, priority 2012, dated 2015).

How the values were obtained:
Assay type in all cases: in vivo
[1] = test system: Ipomoea hederacea (IPOHE); assay: Post-emergence glasshouse herbicide test; conditions: POST Application, 1000 g/h, after 13 days
[2] = test system: Amaranthus retoflexus (AMARE); assay: Post-emergence glasshouse herbicide test; conditions: POST Application, 1000 g/h, after 13 days
[3] = test system: Echinochloa crus-galli (ECHCG); assay: Post-emergence glasshouse herbicide test; conditions: POST Application, 1000 g/h, after 13 days
[4] = test system: Alopecurus myosuroides (ALOMY); assay: Post-emergence glasshouse herbicide test; conditions: POST Application, 1000 g/h, after 13 days
Outline: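 Alopecurus myosuroides seeds were sown in pots of standard soil and grown for 8 days in a glasshouse at 24/16° C. day/night, 14 hours light and 65% humidity. The plants were then sprayed post-emergence with an aqueous solution made from the active ingredient in acetone/water (50:50) containing 0.5% Tween 20. Percentage plant damage was scored 13 days later.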

Solanum nigrum (SOLNI) [5] = assay: Post-emergence glasshouse herbicide test; conditions: POST Application, 1000 g/h, after 13 days
Outline: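 Solanum nigrum seeds were sown in pots of standard soil and grown for 8 days in a glasshouse at 24/16° C. day/night, 14 hours light and 65% humidity. Plants were then sprayed post-emergence with the active ingredient formulated in acetone/water (50:50) containing 0.5% Tween 20. They were grown on under the same conditions with twice-daily watering, and percentage plant damage was scored after 13 days.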

Setaria faberi (SETFA) [6] = assay: Post-emergence glasshouse herbicide test; conditions: POST Application, 1000 g/h, after 13 days
Outline: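 Setaria faberi seeds were sown in standard soil in pots and grown for 8 days in a glasshouse at 24/16° C. day/night, 14 hours light and 65% humidity. Plants were then sprayed post-emergence with the active ingredient in acetone/water (50:50) containing 0.5% Tween 20, regrown under the same conditions with twice-daily watering, and scored for percentage damage after 13 days.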

[7] = test system: Ipomoea hederacea (IPOHE); assay: Pre-emergence glasshouse herbicide test; conditions: PRE Application, 1000 g/h, after 13 days
[8] = test system: Amaranthus retoflexus (AMARE); assay: Pre-emergence glasshouse herbicide test; conditions: PRE Application, 1000 g/h, after 13 days
Setaria faberi (SETFA) [9] = assay: Pre-emergence glasshouse herbicide test; conditions: PRE Application, 1000 g/h, after 13 days
[10] = test system: Echinochloa crus-galli (ECHCG); assay: Pre-emergence glasshouse herbicide test; conditions: PRE Application, 1000 g/h, after 13 days
[11] = test system: Alopecurus myosuroides (ALOMY); assay: Pre-emergence glasshouse herbicide test; conditions: PRE Application, 1000 g/h, after 13 days
Outline: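 Alopecurus myosuroides seeds were sown in standard soil in pots and kept one day in a glasshouse at 24/16° C. day/night, 14 hours light and 65% humidity. The soil was then sprayed pre-emergence with the active ingredient in acetone/water (50:50) containing 0.5% Tween 20. Plants grew on, watered twice daily, and percentage damage was scored 13 days later.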

Solanum nigrum (SOLNI) [12] = assay: Pre-emergence glasshouse herbicide test; conditions: PRE Application, 1000 g/h, after 13 days

SMILES	percentage damage caused to the plant, IPOHE [1]	percentage damage caused to the plant, AMARE [2]	percentage damage caused to the plant, ECHCG [3]	percentage damage caused to the plant, ALOMY [4]	percentage damage caused to the plant, SOLNI (Solanum nigrum (SOLNI) [5])	percentage damage caused to the plant, SETFA (Setaria faberi (SETFA) [6])	percentage damage caused to the plant, IPOHE [7]	percentage damage caused to the plant, AMARE [8]	percentage damage caused to the plant, SETFA (Setaria faberi (SETFA) [9])	percentage damage caused to the plant, ECHCG [10]	percentage damage caused to the plant, ALOMY [11]	percentage damage caused to the plant, SOLNI (Solanum nigrum (SOLNI) [12])
Cn1nnnc1NC(=O)c1nc2ccccc2n(-c2ccc(OC(F)(F)F)cc2)c1=O [Compound 5.030]	5 (5=80-100%)	5 (5=80-100%)	5 (5=80-100%)	5 (5=80-100%)	5 (5=80-100%)	5 (5=80-100%)	5 (5=80-100%)	5 (5=80-100%)	5 (5=80-100%)	5 (5=80-100%)	5 (5=80-100%)	5 (5=80-100%)
Cn1nnnc1NC(=O)c1nc2ccccc2n(-c2ccc3ccccc3c2)c1=O [Compound 5.031]	3 (3=40-59%)	5 (5=80-100%)	1 (1=0-19%)	1 (1=0-19%)	5 (5=80-100%)	1 (1=0-19%)	1 (1=0-19%)	5 (5=80-100%)	1 (1=0-19%)	1 (1=0-19%)	1 (1=0-19%)	5 (5=80-100%)
Cn1nnnc1NC(=O)c1nc2ccccc2n(-c2ccc(Br)cc2)c1=O [Compound 5.032]	5 (5=80-100%)	5 (5=80-100%)	3 (3=40-59%)	2 (2=20-39%)	5 (5=80-100%)	5 (5=80-100%)	5 (5=80-100%)	5 (5=80-100%)	5 (5=80-100%)	4 (4=60-79%)	4 (4=60-79%)	5 (5=80-100%)
COc1ccc(-n2c(=O)c(C(=O)Nc3nnnn3C)nc3ccccc32)cc1F [Compound 5.033]	5 (5=80-100%)	5 (5=80-100%)	5 (5=80-100%)	1 (1=0-19%)	5 (5=80-100%)	4 (4=60-79%)	5 (5=80-100%)	5 (5=80-100%)	1 (1=0-19%)	5 (5=80-100%)	2 (2=20-39%)	5 (5=80-100%)
Cc1ccccc1-n1c(=O)c(C(=O)Nc2nnnn2C)nc2ccccc21 [Compound 5.034]	5 (5=80-100%)	5 (5=80-100%)	5 (5=80-100%)	4 (4=60-79%)	5 (5=80-100%)	5 (5=80-100%)	5 (5=80-100%)	5 (5=80-100%)	5 (5=80-100%)	5 (5=80-100%)	5 (5=80-100%)	5 (5=80-100%)
Cn1nnnc1NC(=O)c1nc2ccccc2n(-c2ccc(Cl)c(Cl)c2)c1=O [Compound 5.035]	5 (5=80-100%)	5 (5=80-100%)	2 (2=20-39%)	2 (2=20-39%)	5 (5=80-100%)	4 (4=60-79%)	5 (5=80-100%)	5 (5=80-100%)	5 (5=80-100%)	2 (2=20-39%)	3 (3=40-59%)	5 (5=80-100%)
Cc1cc(-n2c(=O)c(C(=O)Nc3nnnn3C)nc3ccccc32)ccc1Cl [Compound 5.036]	5 (5=80-100%)	5 (5=80-100%)	5 (5=80-100%)	2 (2=20-39%)	5 (5=80-100%)	4 (4=60-79%)	5 (5=80-100%)	5 (5=80-100%)	4 (4=60-79%)	3 (3=40-59%)	3 (3=40-59%)	5 (5=80-100%)
Cn1nnnc1NC(=O)c1nc2ccccc2n(-c2ccc(Cl)c(C(F)(F)F)c2)c1=O [Compound 5.037]	5 (5=80-100%)	5 (5=80-100%)	5 (5=80-100%)	4 (4=60-79%)	5 (5=80-100%)	5 (5=80-100%)	5 (5=80-100%)	5 (5=80-100%)	5 (5=80-100%)	2 (2=20-39%)	4 (4=60-79%)	5 (5=80-100%)
Cc1cccc(-n2c(=O)c(C(=O)Nc3ncnn3C)nc3ccccc32)n1 [Compound 5.038]	5 (5=80-100%)	5 (5=80-100%)	2 (2=20-39%)	5 (5=80-100%)	5 (5=80-100%)	5 (5=80-100%)	3 (3=40-59%)	5 (5=80-100%)	4 (4=60-79%)	1 (1=0-19%)	4 (4=60-79%)	5 (5=80-100%)
COc1ccc(-n2c(=O)c(C(=O)Nc3nnnn3C)nc3ccccc32)cc1Cl [Compound 5.039]	5 (5=80-100%)	5 (5=80-100%)	3 (3=40-59%)	1 (1=0-19%)	5 (5=80-100%)	1 (1=0-19%)	2 (2=20-39%)	5 (5=80-100%)	2 (2=20-39%)	3 (3=40-59%)	1 (1=0-19%)	5 (5=80-100%)
Cn1nnnc1NC(=O)c1nc2ccccc2n(-c2ccc(C(F)(F)F)c(Cl)c2)c1=O [Compound 5.040]	5 (5=80-100%)	5 (5=80-100%)	2 (2=20-39%)	2 (2=20-39%)	5 (5=80-100%)	2 (2=20-39%)	3 (3=40-59%)	5 (5=80-100%)	1 (1=0-19%)	1 (1=0-19%)	1 (1=0-19%)	5 (5=80-100%)
